Data on one compound can be found in PMC10983001, “Development of Cytotoxic GW7604-Zeise’s Salt Conjugates as Multitarget Compounds with Selectivity for Estrogen Receptor- Positive Tumor Cells” (Journal of Medicinal Chemistry, 2024).

Data set [1] has as its system SKBr3 cells. The experiment in a line: Cellular uptake (platinum by HR-CS-AAS), SKBr3. Type of data set: cell-based, human. The settings on record: 8 h. The procedure:
In order to reach the DNA, the complexes must first pass through the cell membrane and penetrate into the nuclei. Therefore, the cellular uptake kinetics of GW7604-Alk-PtCl3 complexes were studied using the example of GW7604-Pent-PtCl3. This complex and Cisplatin, respectively, were incubated at a concentration of 20 μM with MCF-7 or SKBr3 cells. After various time points [i.e., 0 (3 min), 0.5, 1, 2, 4, and 8 h], cell pellets were prepared, and the platinum content was quantified by high-resolution continuum source atomic absorption spectrometry (HR-CS-AAS).[52]
After thawing of the cell/nuclei pellets, they were resuspended in ultrapure water (Siemens LaboStar, Günzburg, Germany; 300 μL) and lyzed with a sonotrode (Bandelin Sonoplus, Berlin, Germany; parameters 20 s, 9 cycles, 80% power). Graphite furnace (GF) AAS was used to quantify the lysates concerning their content of platinum (λ = 265.9450 nm). For this purpose, a contrAA 700 High-Resolution-Continous Source AAS (Analytik Jena, Jena, Germany) was employed, while atomization took place by electrothermal heating of graphite tubes with an inserted platform (Analytik Jena, Jena, Germany). A time–temperature program reported in the literature[25] was followed with minor adjustments. The liquid samples kept in 0.5 mL polystyrene vials (Gesellschaft für Analysentechnik, Salzwedel, Germany) were injected directly into the pyrolytically coated tubes using an MPE 60 autosampler (Analytik Jena, Jena, Germany). Throughout the measurements, argon (Alphagaz 1, 99.999%, Air Liquide, Düsseldorf, Germany) served as the purge and protective gas. The spectrometer was monitored with the ASpect CS software, version 2.3.1.0 (Analytik Jena, Jena, Germany). For all runs, the mean integrated absorbance was determined after three injections of each standard or sample. Calibration was performed by an appropriate dilution of a solution of Cisplatin (Sigma-Aldrich, Taufkirchen, Germany) obtaining five standards (2–10 μg/L, R^2 ≥ 0.982). Each cell/nuclei lysate was quantified concerning its protein content following the method of Bradford[71] in order to express the uptake as the amount of compound (pmol) in the lysate relative to its protein mass (mg). Therefore, solutions of Albumin fraction V (Carl Roth, Karlsruhe, Germany) diluted with ultrapure water were adduced for the calibration (six standards, 50–300 μg/mL, R^2 ≥ 0.996). […] All standards and lysates were measured in duplicate. After incubating for 5 min at rt, the absorbance (λ = 595 nm) was read on a microplate reader (Tecan Safire 2, Männedorf, Switzerland). […]

The nature of data set [2]: Stability in organic solutions (1H NMR). Type of data set: physicochemical. To be noted: for amount of free ligand: DMF-d7, rt. The protocol:
Furthermore, it needs to be clarified whether organic solvent molecules are capable of ligand exchange reactions at the PtCl3 unit and form corresponding reaction/degradation products of the GW7604-Alk-PtCl3 complexes. Therefore, ^1H NMR experiments were performed with noncoordinating [e.g., acetone-d6, methanol-d4] and coordinating [e.g., acetonitrile-d3 , DMF-d7, dimethyl sulfoxide-d6 (DMSO-d6)] solvents. It should further be assessed whether the solvents are suitable for preparing stock solutions for structural characterization or in vitro testing.
The solutions (concentrations of 4.5–5.0 mM) were stored in NMR tubes at room temperature (rt) after being purged with argon.

Data set [3] has as its system SKBr3 cells. The experiment in a line: MTT assay of metabolic activity, SKBr3. Type of data set: cell-based, human. The settings on record: 72 h, MTT. The procedure: The GW7604-Alk-PtCl3 complexes (with exclusion of GW7604-Prop-PtCl3) were investigated for cytotoxic effects in SKBr3 (ER-negative, COX-2-positive, Figure 6), MCF-7 (ERα-positive, COX-negative, Figure 6), and noncancerous TSA-201 (human embryonal kidney) cells at concentrations of 10–30 μM using an established MTT (3-(4,5-dimethylthiazol-2-yl)-2,5-diphenyltetrazolium bromide) assay.[60],[69]
After incubation for 72 h, the amounts of surviving, metabolically active cells were quantified based on their ability to transform the water-soluble yellow dye MTT to a purple formazan, which can be analyzed by UV–vis spectroscopy.
The exponentially growing cells were seeded at a density of 1750 (MCF-7), 2000 (SKBr3), and 1250 (TSA-201) cells/well into clear flat-bottom 96-well plates in triplicate. Following 24 h of incubation at 37 °C in a humidified atmosphere (5% CO2/95% air), the compounds [freshly prepared stock solutions in DMF, diluted with DMEM to the desired concentration (final DMF concentration of 0.1% (v/v))] were added to reach the indicated concentrations. After another 72 h of incubation, the cellular metabolic activity was measured employing an MTT assay. By adding predissolved MTT reagent in PBS at a final concentration of 0.5 mg/mL, the metabolic activity can be determined via an enzymatic conversion to a purple formazan salt. After 3 h, the medium was aspirated, and 200 μL of DMSO was added to dissolve the formed formazan crystals. The absorbance was measured at 570 and 690 nm (turbidity assessment) using an EnSpire plate reader (PerkinElmer, Waltham, MA, USA). Solvent-treated cells without a compound served as the positive control. Metabolic activity was calculated by the following equation [drawing 1]
Background: Tetrazolium dyes change colour on reduction, which living cells bring about.

SMILES strings stand for the structures.

As for `CCC(=C(c1ccc(O)cc1)c1ccc(C=CC(=O)OCCC[CH]2[CH2][Pt-]2([Cl])([Cl])[Cl])cc1)c1ccccc1.[K+]` (mixture of isomers) [GW7604-Pent-PtCl3, Potassium trichlorido[η^2-(pent-4-en-1-yl (E)-3-(4-((E/Z)-1-(4-hydroxyphenyl)-2-phenylbut-1-en-1-yl)phenyl)acrylate)]platinate(II)], the “platinum amount in SKBr3 relative to MCF-7 cells” value in the data set on SKBr3 cells [1] (20 μM) is “about one-twelfth”. Moreover, the intracellular platinum amount in the data set on SKBr3 cells [1] (SKBr3, 20 μM) is reported as 67 pmol/mg. The “amount of free ligand” value was “about 33%” in data set [2] (9 days) and “about 40%” in data set [2] (14 days). In addition, the “stability in DMSO-d6” value in data set [2] (DMSO-d6, measured after 5 min / immediately after dissolution) is given as “only signals of the free GW7604-Pent ligand”. Also, the “time to complete degradation of the complex” value in data set [2] (acetonitrile-d3, rt) is at most 23 days. Besides, the “complex that released the free ligand” value is recorded as “about 25%” in data set [2] (acetonitrile-d3, rt, 4 days) and “about 35%” in data set [2] (acetonitrile-d3, rt, 9 days). Also, the IC50 (usually the midpoint of a concentration-inhibition curve) in the data set with SKBr3 cells [3] was above 30 µM.
